Measurements published in the NIST ThermoML archive (doi:10.1021/je050483s).
Numbers after ± are expanded uncertainties.

How the values were obtained:
[1] = xn = mol fraction of the nth substance listed; conditions: 101 kPa, Liquid
[2] = 101 kPa, Liquid

With O [water] + C1CCNC1 the speed of sound ([1]; 313 K, x2 = 0) was 1529 ± 1.5 m/s.

With C1CCNCC1 [piperidine] the speed of sound ([2]; 293 K) was 1384.4 ± 1.9 m/s, the speed of sound ([2]; 303 K) was 1342.3 ± 1.8 m/s and the speed of sound ([2]; 313 K) was 1299.9 ± 1.8 m/s. The speed of sound ([2]; 323 K) was 1257.4 ± 1.8 m/s.

Compound C1CCNC1 [pyrrolidine] + O has a speed of sound ([1]; 293 K, x1 = 0.006) of 1501.6 ± 1.5 m/s, a speed of sound ([1]; 293 K, x1 = 0.01) of 1517.1 ± 1.5 m/s and a speed of sound ([1]; 293 K, x1 = 0.022) of 1557.9 ± 1.5 m/s. It also gave a speed of sound ([1]; 293 K, x1 = 0.068) of 1650.5 ± 1.6 m/s, a speed of sound ([1]; 293 K, x1 = 0.116) of 1654.8 ± 1.6 m/s and a speed of sound ([1]; 293 K, x1 = 0.208) of 1626.3 ± 1.6 m/s. It also gave a speed of sound ([1]; 293 K, x1 = 0.304) of 1589.8 ± 1.6 m/s, a speed of sound ([1]; 293 K, x1 = 0.396) of 1556.7 ± 1.6 m/s and a speed of sound ([1]; 293 K, x1 = 0.483) of 1528.8 ± 1.6 m/s. It also gave a speed of sound ([1]; 293 K, x1 = 0.567) of 1500.3 ± 1.7 m/s, a speed of sound ([1]; 293 K, x1 = 0.686) of 1467.5 ± 1.7 m/s and a speed of sound ([1]; 293 K, x1 = 0.868) of 1416.6 ± 1.7 m/s. For the same compound, the speed of sound ([1]; 293 K, x1 = 1) was 1389.4 ± 1.8 m/s, the speed of sound ([1]; 303 K, x1 = 0.006) was 1525.2 ± 1.5 m/s and the speed of sound ([1]; 303 K, x1 = 0.01) was 1537.1 ± 1.5 m/s. For the same compound, the speed of sound ([1]; 303 K, x1 = 0.022) was 1569.8 ± 1.5 m/s, the speed of sound ([1]; 303 K, x1 = 0.068) was 1635.1 ± 1.6 m/s and the speed of sound ([1]; 303 K, x1 = 0.116) was 1631.8 ± 1.6 m/s. For the same compound, the speed of sound ([1]; 303 K, x1 = 0.208) was 1596.4 ± 1.6 m/s, the speed of sound ([1]; 303 K, x1 = 0.304) was 1555.3 ± 1.6 m/s and the speed of sound ([1]; 303 K, x1 = 0.396) was 1519.5 ± 1.6 m/s. For the same compound, the speed of sound ([1]; 303 K, x1 = 0.483) was 1489.9 ± 1.6 m/s, the speed of sound ([1]; 303 K, x1 = 0.567) was 1458.9 ± 1.6 m/s and the speed of sound ([1]; 303 K, x1 = 0.686) was 1426.8 ± 1.6 m/s. For the same compound, the speed of sound ([1]; 303 K, x1 = 0.868) was 1375.5 ± 1.7 m/s, the speed of sound ([1]; 303 K, x1 = 1) was 1348 ± 1.8 m/s and the speed of sound ([1]; 313 K, x1 = 0.006) was 1541.5 ± 1.5 m/s. The speed of sound ([1]; 313 K, x1 = 0.01) was 1551.1 ± 1.5 m/s, the speed of sound ([1]; 313 K, x1 = 0.022) was 1576.6 ± 1.5 m/s and the speed of sound ([1]; 313 K, x1 = 0.068) was 1619.3 ± 1.6 m/s. It also gave a speed of sound ([1]; 313 K, x1 = 0.116) of 1608 ± 1.6 m/s, a speed of sound ([1]; 313 K, x1 = 0.208) of 1565.5 ± 1.6 m/s and a speed of sound ([1]; 313 K, x1 = 0.304) of 1520 ± 1.6 m/s. The speed of sound ([1]; 313 K, x1 = 0.396) was 1481.6 ± 1.6 m/s, the speed of sound ([1]; 313 K, x1 = 0.483) was 1450.5 ± 1.6 m/s and the speed of sound ([1]; 313 K, x1 = 0.567) was 1422.2 ± 1.6 m/s. The speed of sound ([1]; 313 K, x1 = 0.686) was 1385.6 ± 1.6 m/s, the speed of sound ([1]; 313 K, x1 = 0.868) was 1333.8 ± 1.7 m/s and the speed of sound ([1]; 313 K, x1 = 1) was 1305.8 ± 1.7 m/s. The speed of sound ([1]; 323 K, x1 = 0.006) was 1552.2 ± 1.5 m/s, the speed of sound ([1]; 323 K, x1 = 0.01) was 1559.7 ± 1.5 m/s and the speed of sound ([1]; 323 K, x1 = 0.022) was 1578.7 ± 1.5 m/s. It also gave a speed of sound ([1]; 323 K, x1 = 0.068) of 1602.3 ± 1.6 m/s, a speed of sound ([1]; 323 K, x1 = 0.116) of 1583.2 ± 1.6 m/s and a speed of sound ([1]; 323 K, x1 = 0.208) of 1533.5 ± 1.6 m/s. The speed of sound ([1]; 323 K, x1 = 0.304) was 1483.9 ± 1.6 m/s, the speed of sound ([1]; 323 K, x1 = 0.396) was 1443 ± 1.6 m/s and the speed of sound ([1]; 323 K, x1 = 0.483) was 1410.5 ± 1.6 m/s. For the same compound, the speed of sound ([1]; 323 K, x1 = 0.567) was 1377.7 ± 1.6 m/s, the speed of sound ([1]; 323 K, x1 = 0.686) was 1344 ± 1.6 m/s and the speed of sound ([1]; 323 K, x1 = 0.868) was 1291.7 ± 1.6 m/s. The speed of sound ([1]; 323 K, x1 = 1) was 1263 ± 1.7 m/s.

In the case of C1CCNC1 [pyrrolidine], the speed of sound ([2]; 293 K) is reported as 1389.4 ± 1.8 m/s, the speed of sound ([2]; 303 K) is reported as 1348 ± 1.8 m/s and the speed of sound ([2]; 313 K) is reported as 1305.8 ± 1.7 m/s. The speed of sound ([2]; 323 K) was 1263 ± 1.7 m/s.

C1CCNCC1 [piperidine] + O showed a speed of sound ([1]; 293 K, x1 = 0.006) of 1506.5 ± 1.8 m/s, a speed of sound ([1]; 293 K, x1 = 0.011) of 1531.1 ± 1.8 m/s and a speed of sound ([1]; 293 K, x1 = 0.028) of 1590.1 ± 1.9 m/s. For the same compound, the speed of sound ([1]; 293 K, x1 = 0.057) was 1596.3 ± 1.9 m/s, the speed of sound ([1]; 293 K, x1 = 0.099) was 1593.6 ± 1.9 m/s and the speed of sound ([1]; 293 K, x1 = 0.18) was 1575.4 ± 1.9 m/s. For the same compound, the speed of sound ([1]; 293 K, x1 = 0.267) was 1550.2 ± 1.9 m/s, the speed of sound ([1]; 293 K, x1 = 0.354) was 1525.1 ± 1.9 m/s and the speed of sound ([1]; 293 K, x1 = 0.439) was 1499.8 ± 1.9 m/s. For the same compound, the speed of sound ([1]; 293 K, x1 = 0.523) was 1477 ± 1.9 m/s, the speed of sound ([1]; 293 K, x1 = 0.646) was 1445.3 ± 1.9 m/s and the speed of sound ([1]; 293 K, x1 = 0.846) was 1406.2 ± 1.9 m/s. The speed of sound ([1]; 293 K, x1 = 1) was 1384.4 ± 1.9 m/s, the speed of sound ([1]; 303 K, x1 = 0.006) was 1528.7 ± 1.8 m/s and the speed of sound ([1]; 303 K, x1 = 0.011) was 1548.7 ± 1.8 m/s. It also gave a speed of sound ([1]; 303 K, x1 = 0.028) of 1588.3 ± 1.9 m/s, a speed of sound ([1]; 303 K, x1 = 0.057) of 1587.1 ± 1.9 m/s and a speed of sound ([1]; 303 K, x1 = 0.099) of 1576.5 ± 1.9 m/s. For the same compound, the speed of sound ([1]; 303 K, x1 = 0.18) was 1547.9 ± 1.9 m/s, the speed of sound ([1]; 303 K, x1 = 0.267) was 1517.2 ± 1.9 m/s and the speed of sound ([1]; 303 K, x1 = 0.354) was 1489.1 ± 1.9 m/s. It also gave a speed of sound ([1]; 303 K, x1 = 0.439) of 1461.1 ± 1.8 m/s, a speed of sound ([1]; 303 K, x1 = 0.523) of 1438 ± 1.8 m/s and a speed of sound ([1]; 303 K, x1 = 0.646) of 1405.2 ± 1.8 m/s. It also gave a speed of sound ([1]; 303 K, x1 = 0.846) of 1365.1 ± 1.8 m/s, a speed of sound ([1]; 303 K, x1 = 1) of 1342.3 ± 1.8 m/s and a speed of sound ([1]; 313 K, x1 = 0.006) of 1544.8 ± 1.8 m/s. The speed of sound ([1]; 313 K, x1 = 0.011) was 1560.4 ± 1.8 m/s, the speed of sound ([1]; 313 K, x1 = 0.028) was 1584.5 ± 1.9 m/s and the speed of sound ([1]; 313 K, x1 = 0.057) was 1576 ± 1.9 m/s. It also gave a speed of sound ([1]; 313 K, x1 = 0.099) of 1557.5 ± 1.8 m/s, a speed of sound ([1]; 313 K, x1 = 0.18) of 1519.2 ± 1.8 m/s and a speed of sound ([1]; 313 K, x1 = 0.267) of 1483.5 ± 1.8 m/s. It also gave a speed of sound ([1]; 313 K, x1 = 0.354) of 1452.5 ± 1.8 m/s, a speed of sound ([1]; 313 K, x1 = 0.439) of 1424 ± 1.8 m/s and a speed of sound ([1]; 313 K, x1 = 0.523) of 1398.6 ± 1.8 m/s. The speed of sound ([1]; 313 K, x1 = 0.646) was 1364.8 ± 1.8 m/s, the speed of sound ([1]; 313 K, x1 = 0.846) was 1323.6 ± 1.8 m/s and the speed of sound ([1]; 313 K, x1 = 1) was 1299.9 ± 1.8 m/s. For the same compound, the speed of sound ([1]; 323 K, x1 = 0.006) was 1555.1 ± 1.8 m/s, the speed of sound ([1]; 323 K, x1 = 0.011) was 1566.8 ± 1.8 m/s and the speed of sound ([1]; 323 K, x1 = 0.028) was 1578.3 ± 1.9 m/s. For the same compound, the speed of sound ([1]; 323 K, x1 = 0.057) was 1562.7 ± 1.8 m/s, the speed of sound ([1]; 323 K, x1 = 0.099) was 1536.6 ± 1.8 m/s and the speed of sound ([1]; 323 K, x1 = 0.18) was 1489.3 ± 1.8 m/s. For the same compound, the speed of sound ([1]; 323 K, x1 = 0.267) was 1449 ± 1.8 m/s, the speed of sound ([1]; 323 K, x1 = 0.354) was 1415.4 ± 1.8 m/s and the speed of sound ([1]; 323 K, x1 = 0.439) was 1384.9 ± 1.8 m/s. For the same compound, the speed of sound ([1]; 323 K, x1 = 0.523) was 1358.9 ± 1.8 m/s, the speed of sound ([1]; 323 K, x1 = 0.646) was 1324.2 ± 1.8 m/s and the speed of sound ([1]; 323 K, x1 = 0.846) was 1282 ± 1.8 m/s. The speed of sound ([1]; 323 K, x1 = 1) was 1257.4 ± 1.8 m/s.

With O [water] + C1CCNCC1 the speed of sound ([1]; 313 K, x2 = 0) was 1529 ± 1.8 m/s.
